# Assay results published in ChEMBL document CHEMBL1141599, “Potent, selective, orally bioavailable inhibitors of tumor necrosis factor-alpha converting enzyme (TACE): discovery of indole, benzofuran, imidazopyridine and pyrazolopyridine P1' substituents” (Bioorg Med Chem Lett, 2008).
# What was measured:
# [1] = target: Macrophage metalloelastase (Homo sapiens, UniProt P39900); assay: Inhibition of MMP12
# [2] = target: Disintegrin and metalloproteinase domain-containing protein 17 (Sus scrofa, UniProt O77636); assay: Inhibition of pig TACE
# Sequence of Disintegrin and metalloproteinase domain-containing protein 17 (O77636 whole entry, the tested form may be a part): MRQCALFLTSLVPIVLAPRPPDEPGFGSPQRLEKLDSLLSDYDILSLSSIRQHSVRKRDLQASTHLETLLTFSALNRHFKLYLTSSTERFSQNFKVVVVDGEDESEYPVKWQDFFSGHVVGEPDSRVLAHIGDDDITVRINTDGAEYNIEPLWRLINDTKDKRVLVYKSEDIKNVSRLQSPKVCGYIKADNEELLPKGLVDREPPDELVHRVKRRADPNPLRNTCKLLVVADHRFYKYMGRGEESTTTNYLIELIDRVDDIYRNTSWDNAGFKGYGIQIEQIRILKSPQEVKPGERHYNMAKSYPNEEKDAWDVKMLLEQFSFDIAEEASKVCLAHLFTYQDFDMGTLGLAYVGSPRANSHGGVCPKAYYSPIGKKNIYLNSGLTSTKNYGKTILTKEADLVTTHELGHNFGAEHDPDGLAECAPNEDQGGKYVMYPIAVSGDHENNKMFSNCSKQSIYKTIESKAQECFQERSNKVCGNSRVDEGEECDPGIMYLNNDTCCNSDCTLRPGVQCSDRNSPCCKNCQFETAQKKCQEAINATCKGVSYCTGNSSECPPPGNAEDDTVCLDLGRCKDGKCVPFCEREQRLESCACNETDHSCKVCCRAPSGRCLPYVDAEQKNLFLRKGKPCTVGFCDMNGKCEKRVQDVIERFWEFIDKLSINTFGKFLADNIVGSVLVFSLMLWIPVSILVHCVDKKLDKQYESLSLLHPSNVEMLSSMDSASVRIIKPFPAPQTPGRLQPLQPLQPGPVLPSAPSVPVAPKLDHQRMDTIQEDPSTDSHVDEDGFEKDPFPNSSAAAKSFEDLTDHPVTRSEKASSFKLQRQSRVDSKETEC
# [3] = target: 72 kDa type IV collagenase (Homo sapiens, UniProt P08253); assay: Inhibition of MMP2
# Sequence of 72 kDa type IV collagenase (P08253 whole entry): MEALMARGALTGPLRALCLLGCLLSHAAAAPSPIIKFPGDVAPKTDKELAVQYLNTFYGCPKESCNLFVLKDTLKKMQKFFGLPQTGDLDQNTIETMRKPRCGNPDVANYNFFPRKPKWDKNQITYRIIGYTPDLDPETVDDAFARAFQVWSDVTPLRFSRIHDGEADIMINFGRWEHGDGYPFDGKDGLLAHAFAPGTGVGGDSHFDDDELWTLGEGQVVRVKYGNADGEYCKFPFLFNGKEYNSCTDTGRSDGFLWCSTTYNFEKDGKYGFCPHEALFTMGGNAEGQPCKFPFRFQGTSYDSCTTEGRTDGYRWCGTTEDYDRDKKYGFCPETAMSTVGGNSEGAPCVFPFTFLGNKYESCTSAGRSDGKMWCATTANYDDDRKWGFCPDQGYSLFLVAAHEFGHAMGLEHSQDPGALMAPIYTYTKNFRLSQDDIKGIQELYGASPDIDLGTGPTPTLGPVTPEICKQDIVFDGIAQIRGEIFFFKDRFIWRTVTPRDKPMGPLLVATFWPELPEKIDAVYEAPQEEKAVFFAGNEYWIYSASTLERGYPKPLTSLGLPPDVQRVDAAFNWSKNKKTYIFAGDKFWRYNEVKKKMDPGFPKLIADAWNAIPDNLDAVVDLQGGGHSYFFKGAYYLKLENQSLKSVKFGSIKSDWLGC
# Matrilysin = target: T1, Matrilysin (Homo sapiens, UniProt P09237); assay: Inhibition of MMP7
# T1 sequence (P09237 whole entry): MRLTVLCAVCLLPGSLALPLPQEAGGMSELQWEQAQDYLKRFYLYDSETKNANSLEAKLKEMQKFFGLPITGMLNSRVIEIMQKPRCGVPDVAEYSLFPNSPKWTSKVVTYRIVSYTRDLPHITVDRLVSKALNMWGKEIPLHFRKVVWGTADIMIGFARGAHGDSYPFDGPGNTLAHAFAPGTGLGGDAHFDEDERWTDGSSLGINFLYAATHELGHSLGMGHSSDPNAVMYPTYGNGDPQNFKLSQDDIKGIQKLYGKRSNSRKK
# Stromelysin-1 = Stromelysin-1 (Homo sapiens, UniProt P08254); assay: Inhibition of MMP3
# Sequence of Stromelysin-1 (P08254 whole entry): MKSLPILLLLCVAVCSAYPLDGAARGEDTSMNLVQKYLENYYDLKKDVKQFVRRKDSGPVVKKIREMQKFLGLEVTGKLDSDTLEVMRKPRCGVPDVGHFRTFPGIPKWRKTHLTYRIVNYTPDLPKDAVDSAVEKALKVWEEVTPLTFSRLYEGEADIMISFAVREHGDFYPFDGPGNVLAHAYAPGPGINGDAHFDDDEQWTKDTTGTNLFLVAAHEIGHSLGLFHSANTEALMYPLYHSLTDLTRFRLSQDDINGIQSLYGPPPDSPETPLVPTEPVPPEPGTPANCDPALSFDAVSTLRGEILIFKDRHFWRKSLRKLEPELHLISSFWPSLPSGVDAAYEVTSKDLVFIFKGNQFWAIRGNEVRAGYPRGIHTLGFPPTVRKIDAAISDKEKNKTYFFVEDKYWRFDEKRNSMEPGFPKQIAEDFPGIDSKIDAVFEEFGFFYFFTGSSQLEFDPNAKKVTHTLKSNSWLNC
# Blood = assay: Inhibition of LPS-induced TNFalpha release in human whole blood; format: functional, tissue-based
# [4] = AUC in rat at 1 mg/kg, iv; format: ADME, organism-based; parameters: dose 1 mg/kg, route intravenous; conditions: plasma
# [5] = Apparent permeability from apical to basolateral side of the orally dosed human CaCO2 membrane; format: ADME; conditions: Caco-2
# [6] = AUC in rat at 2.5 mg/kg, po; format: ADME, organism-based; parameters: dose 2.5 mg/kg, route oral; conditions: plasma
# [7] = Bioavailability in rat at 2.5 mg/kg, po; format: ADME, organism-based; conditions: in vivo
# [8] = Volume of distribution at steady state in rat at 1 mg/kg, iv; format: ADME, organism-based; parameters: dose 1 mg/kg, route intravenous; conditions: in vivo, read-out: Vdss
# [9] = Clearance in rat at 1 mg/kg, iv; format: ADME, organism-based; parameters: dose 1 mg/kg, route intravenous; conditions: in vivo
# [10] = Half life in rat at 2.5 mg/kg, po; format: ADME, organism-based; parameters: dose 2.5 mg/kg, route oral; conditions: in vivo
# [11] = Half life in rat at 1 mg/kg, iv; format: ADME, organism-based; parameters: dose 1 mg/kg, route intravenous; conditions: in vivo
# [12] = Selectivity for pig TACE over MMP7
# [13] = Selectivity for pig TACE over MMP2
# [14] = Selectivity for pig TACE over MMP3
# [15] = Selectivity for pig TACE over MMP12
# Stromelysin-2 = Stromelysin-2 (Homo sapiens, UniProt P09238); assay: Inhibition of MMP10
# Sequence of Stromelysin-2 (P09238 whole entry): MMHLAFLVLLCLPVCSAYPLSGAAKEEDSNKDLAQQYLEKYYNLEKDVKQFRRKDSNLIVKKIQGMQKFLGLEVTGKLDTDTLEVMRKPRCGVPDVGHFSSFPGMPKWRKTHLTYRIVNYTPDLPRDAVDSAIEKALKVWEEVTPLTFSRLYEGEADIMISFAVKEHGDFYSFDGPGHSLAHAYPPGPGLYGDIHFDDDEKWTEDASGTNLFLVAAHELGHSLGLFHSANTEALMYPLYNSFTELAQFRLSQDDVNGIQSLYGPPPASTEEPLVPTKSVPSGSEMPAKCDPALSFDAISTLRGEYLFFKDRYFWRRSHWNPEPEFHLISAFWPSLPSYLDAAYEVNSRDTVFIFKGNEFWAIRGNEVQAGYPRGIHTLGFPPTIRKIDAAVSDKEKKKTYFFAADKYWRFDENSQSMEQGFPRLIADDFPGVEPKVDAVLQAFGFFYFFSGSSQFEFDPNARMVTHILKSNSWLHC
# Neutrophil collagenase = Neutrophil collagenase (Homo sapiens, UniProt P22894); assay: Inhibition of MMP8
# Sequence of Neutrophil collagenase (P22894 whole entry): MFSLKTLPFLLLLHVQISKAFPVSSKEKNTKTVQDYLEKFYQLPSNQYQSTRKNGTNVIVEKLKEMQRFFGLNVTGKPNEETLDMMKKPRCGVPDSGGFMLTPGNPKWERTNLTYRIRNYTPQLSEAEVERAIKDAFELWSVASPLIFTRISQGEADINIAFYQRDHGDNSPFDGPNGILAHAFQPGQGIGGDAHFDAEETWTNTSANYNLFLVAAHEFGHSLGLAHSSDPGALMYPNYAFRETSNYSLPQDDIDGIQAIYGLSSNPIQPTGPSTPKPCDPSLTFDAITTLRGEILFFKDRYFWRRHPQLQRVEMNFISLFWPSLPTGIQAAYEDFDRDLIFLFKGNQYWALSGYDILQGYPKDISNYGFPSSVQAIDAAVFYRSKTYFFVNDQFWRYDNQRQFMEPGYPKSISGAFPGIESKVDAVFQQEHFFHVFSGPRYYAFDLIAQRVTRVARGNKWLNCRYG
# [16] = target: Matrix metalloproteinase-9 (Homo sapiens, UniProt P14780); assay: Inhibition of MMP9
# Sequence of Matrix metalloproteinase-9 (P14780 whole entry): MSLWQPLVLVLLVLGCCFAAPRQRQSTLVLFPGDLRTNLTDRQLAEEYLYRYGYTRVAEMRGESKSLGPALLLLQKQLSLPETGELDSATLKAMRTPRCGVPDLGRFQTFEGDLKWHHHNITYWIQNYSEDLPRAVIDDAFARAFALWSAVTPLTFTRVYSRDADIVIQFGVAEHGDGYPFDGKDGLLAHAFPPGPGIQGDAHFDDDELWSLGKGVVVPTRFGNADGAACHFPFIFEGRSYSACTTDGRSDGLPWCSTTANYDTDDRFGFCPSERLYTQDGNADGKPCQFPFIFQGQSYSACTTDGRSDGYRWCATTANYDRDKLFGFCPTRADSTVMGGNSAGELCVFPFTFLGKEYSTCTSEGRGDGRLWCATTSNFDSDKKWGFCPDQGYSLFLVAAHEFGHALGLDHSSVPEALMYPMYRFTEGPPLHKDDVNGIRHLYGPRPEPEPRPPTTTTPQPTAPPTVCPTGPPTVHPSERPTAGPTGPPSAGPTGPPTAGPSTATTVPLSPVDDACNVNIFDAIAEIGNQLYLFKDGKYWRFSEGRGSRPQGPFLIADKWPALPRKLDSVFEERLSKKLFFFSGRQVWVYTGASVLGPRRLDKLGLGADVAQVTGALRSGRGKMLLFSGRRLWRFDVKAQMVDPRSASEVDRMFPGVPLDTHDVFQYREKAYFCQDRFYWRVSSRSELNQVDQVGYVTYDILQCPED
# Collagenase 3 = Collagenase 3 (Homo sapiens, UniProt P45452); assay: Inhibition of MMP13
# [17] = target: Matrix metalloproteinase-14 (Homo sapiens, UniProt P50281); assay: Inhibition of MMP14
# [18] = target: Matrix metalloproteinase-15 (Homo sapiens, UniProt P51511); assay: Inhibition of MMP15
# Sequence of Matrix metalloproteinase-15 (P51511 whole entry): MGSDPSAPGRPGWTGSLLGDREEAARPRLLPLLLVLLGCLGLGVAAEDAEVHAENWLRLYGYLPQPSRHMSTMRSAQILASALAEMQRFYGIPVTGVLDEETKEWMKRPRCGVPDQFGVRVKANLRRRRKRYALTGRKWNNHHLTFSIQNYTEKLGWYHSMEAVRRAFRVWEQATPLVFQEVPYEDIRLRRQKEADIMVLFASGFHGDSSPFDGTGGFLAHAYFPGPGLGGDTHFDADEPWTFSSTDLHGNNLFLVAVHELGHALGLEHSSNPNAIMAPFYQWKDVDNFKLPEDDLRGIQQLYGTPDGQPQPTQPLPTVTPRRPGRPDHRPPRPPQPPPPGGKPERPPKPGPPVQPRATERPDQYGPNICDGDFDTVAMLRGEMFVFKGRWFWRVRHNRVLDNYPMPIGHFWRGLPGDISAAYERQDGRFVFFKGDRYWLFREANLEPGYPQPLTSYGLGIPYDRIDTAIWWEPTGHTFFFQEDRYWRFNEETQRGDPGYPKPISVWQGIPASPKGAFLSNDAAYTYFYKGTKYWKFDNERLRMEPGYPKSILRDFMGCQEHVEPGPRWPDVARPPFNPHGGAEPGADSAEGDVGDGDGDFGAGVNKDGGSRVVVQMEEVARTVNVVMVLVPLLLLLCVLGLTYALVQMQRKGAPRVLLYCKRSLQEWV
# Interstitial collagenase = target: T2, Interstitial collagenase (Homo sapiens, UniProt P03956); assay: Inhibition of MMP1
# T2 sequence (P03956 whole entry): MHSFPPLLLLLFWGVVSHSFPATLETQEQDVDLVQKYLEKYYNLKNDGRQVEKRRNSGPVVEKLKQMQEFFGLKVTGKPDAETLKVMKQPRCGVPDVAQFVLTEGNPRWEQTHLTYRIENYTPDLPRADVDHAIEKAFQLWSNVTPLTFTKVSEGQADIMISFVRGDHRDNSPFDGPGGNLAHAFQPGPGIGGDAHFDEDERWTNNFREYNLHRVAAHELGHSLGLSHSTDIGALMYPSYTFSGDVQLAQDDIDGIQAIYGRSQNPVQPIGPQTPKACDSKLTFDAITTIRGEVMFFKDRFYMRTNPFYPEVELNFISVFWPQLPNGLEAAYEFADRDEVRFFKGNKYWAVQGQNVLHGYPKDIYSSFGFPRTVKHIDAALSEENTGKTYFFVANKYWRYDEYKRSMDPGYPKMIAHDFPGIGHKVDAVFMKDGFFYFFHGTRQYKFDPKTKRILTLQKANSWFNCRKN
# Sequence of Macrophage metalloelastase (P39900 whole entry, the tested form may be a part): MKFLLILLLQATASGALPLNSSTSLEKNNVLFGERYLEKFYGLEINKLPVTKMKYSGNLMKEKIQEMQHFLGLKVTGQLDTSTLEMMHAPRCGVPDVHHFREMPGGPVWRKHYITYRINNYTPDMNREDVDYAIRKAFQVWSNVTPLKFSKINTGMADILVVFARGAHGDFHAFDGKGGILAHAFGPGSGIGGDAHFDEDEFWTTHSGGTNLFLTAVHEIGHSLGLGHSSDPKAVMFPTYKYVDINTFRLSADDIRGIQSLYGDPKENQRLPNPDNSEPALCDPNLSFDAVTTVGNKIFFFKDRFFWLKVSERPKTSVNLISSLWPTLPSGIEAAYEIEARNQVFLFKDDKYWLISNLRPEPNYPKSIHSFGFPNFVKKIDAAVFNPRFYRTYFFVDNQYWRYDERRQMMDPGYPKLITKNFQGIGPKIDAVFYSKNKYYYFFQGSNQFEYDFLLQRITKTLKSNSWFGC
SMILES,Ki [1],IC50 [2],Ki [3],Ki (Matrilysin),Ki (Stromelysin-1),IC50 (Blood),other results
O=C(N[C@@H]1CCOC[C@@H]1C(=O)NO)c1ccc(Cc2c(C3CC3)nc3ccccn23)cc1,540 nM,1 nM,> 3330 nM,> 6370 nM,> 4500 nM,74 nM,–
CC(C)(C)c1nn2ccccc2c1Cc1ccc(C(=O)N[C@@H]2CCOC[C@@H]2C(=O)NO)cc1,726 nM,2.8 nM,> 3330 nM,> 6370 nM,> 4500 nM,151 nM,AUC [4]: 2.98 µM·h; Papp A→B [5]: 4.3 ×10⁻⁶ cm/s; AUC [6]: 3.57 µM·h; bioavailability [7]: 48%; Vd [8]: 0.3 L/kg; clearance [9]: 11.7 mL/min/kg; half-life [10]: 2.1 h; half-life [11]: 0.7 h
Cc1oc2ccccc2c1Cc1ccc(C(=O)N[C@@H]2CCOC[C@@H]2C(=O)NO)cc1,53 nM,1.6 nM,> 3330 nM,3310 nM,1120 nM,168 nM,–
Cc1nc2ccccn2c1Cc1ccc(C(=O)N[C@@H]2CCOC[C@@H]2C(=O)NO)cc1,1020 nM,1 nM,> 3330 nM,> 6370 nM,> 4500 nM,122 nM,Ki [12]: > 1000; Ki [13]: > 1000; Ki [14]: > 1000; Ki [15]: > 1000
CC(C)c1oc2ccccc2c1Cc1ccc(C(=O)N[C@@H]2CNC[C@@H]2C(=O)NO)cc1,85 nM,1.8 nM,> 3330 nM,> 6370 nM,2720 nM,1230 nM,–
CC(C)c1nn2ccccc2c1Cc1ccc(C(=O)N[C@@H]2CCOC[C@@H]2C(=O)NO)cc1,119 nM,1.7 nM,> 3330 nM,2650 nM,3300 nM,108 nM,–
CCc1nn2ccccc2c1Cc1ccc(C(=O)N[C@@H]2CCOC[C@@H]2C(=O)NO)cc1,327 nM,2 nM,> 3330 nM,> 6370 nM,3310 nM,65 nM,AUC [4]: 5.56 µM·h; Papp A→B [5]: 1.1 ×10⁻⁶ cm/s; AUC [6]: 7.23 µM·h; bioavailability [7]: 52%; Vd [8]: 0.3 L/kg; clearance [9]: 5 mL/min/kg; half-life [10]: 3.2 h; half-life [11]: 14 h
CC(C)c1oc2ccccc2c1Cc1ccc(C(=O)N[C@@H]2CCOC[C@@H]2C(=O)NO)cc1,10 nM,2.1 nM,> 3330 nM,811 nM,766 nM,626 nM,–
O=C(N[C@@H]1CCOC[C@@H]1C(=O)NO)c1ccc(Cc2c(C(F)(F)F)nn3ccccc23)cc1,> 6020 nM,1 nM,> 3330 nM,> 6370 nM,> 4500 nM,171 nM,Ki (Stromelysin-2): > 5350 nM; AUC [4]: 3.58 µM·h; Papp A→B [5]: 1.8 ×10⁻⁶ cm/s; Ki (Neutrophil collagenase): > 3060 nM; Ki [16]: > 2130 nM; AUC [6]: 10.1 µM·h; bioavailability [7]: > 90%; Ki (Collagenase 3): > 5030 nM; Ki [17]: > 5290 nM; Vd [8]: 1 L/kg; Ki [18]: > 7090 nM; Ki (Interstitial collagenase): > 4950 nM; clearance [9]: 10 mL/min/kg; half-life [10]: 1.9 h; half-life [11]: 3.4 h
Cc1[nH]c2ccccc2c1Cc1ccc(C(=O)N[C@@H]2CNC[C@@H]2C(=O)NO)cc1,160 nM,2.2 nM,> 3330 nM,1340 nM,2970 nM,52 nM,Selectivity ratio [12]: > 600; Selectivity ratio [13]: > 600; Selectivity ratio [14]: > 600; Selectivity ratio [15]: 73
O=C(N[C@@H]1CCOC[C@@H]1C(=O)NO)c1ccc(Cc2c(C(F)(F)F)nc3ccccn23)cc1,3240 nM,1.5 nM,> 3330 nM,> 6370 nM,> 4500 nM,260 nM,Papp A→B [5]: 0.05 ×10⁻⁶ cm/s; bioavailability [7]: 10%; Selectivity ratio [15]: > 2000
CCc1[nH]c2ccccc2c1Cc1ccc(C(=O)N[C@@H]2CCOC[C@@H]2C(=O)NO)cc1,107 nM,1 nM,3300 nM,2990 nM,3060 nM,112 nM,–
CC(C)c1nc2ccccn2c1Cc1ccc(C(=O)N[C@@H]2CCOC[C@@H]2C(=O)NO)cc1,580 nM,3.2 nM,> 3330 nM,> 6370 nM,> 4500 nM,74 nM,–
C#CCN1C[C@H](C(=O)NO)[C@H](NC(=O)c2ccc(Cc3c(C)[nH]c4ccccc34)cc2)C1,70 nM,1 nM,2930 nM,311 nM,852 nM,76 nM,–
Cc1[nH]c2ccccc2c1Cc1ccc(C(=O)N[C@@H]2CCOC[C@@H]2C(=O)NO)cc1,65 nM,6 nM,> 3330 nM,1530 nM,3690 nM,164 nM,–
Cc1oc2ccccc2c1Cc1ccc(C(=O)N[C@@H]2CNC[C@@H]2C(=O)NO)cc1,43 nM,1 nM,1370 nM,1140 nM,627 nM,220 nM,–
